The values that follow come from patent publication US20260265274A1, “Cyclic Boronic Esters and Their Uses” (Principia Biopharma Inc., priority 2022, published 2026).

Holding throughout (assay type): physicochemical
Series [1] in a line: Open dish stability study at 40° C./75% RH in open glass vials. As to conditions: for % Peak Area by UPLC, 2 weeks / % Peak Area by UPLC, Initial: 40° C./75% RH open; for Open dish stability, result in words: 40° C./75% RH, open glass vials.
Series [2] can be described thus: Stability in SIF (Simulated Intestinal Fluid), ester content by UPLC. As to conditions: SIF pH 6.8, 10 mg/mL in ACN diluted to 0.5 mg/mL, pinacol and pinanediol esters with 20%-30% final ACN. The protocol:
(§1) The diluted solution was then analyzed for ester content by UPLC.
(§2) The same set of experiments were performed for the pinacol and pinanediol esters of Boronic Acid 1 except that additional ACN was added when diluting into SIF in order to maintain the compounds in solution (final ACN concentration of 20%-30% in diluted solutions in SIF).

The nature of series [3]: Stability in SGF (Simulated Gastric Fluid), ester content by UPLC. Particulars: SGF pH 1.2, 10 mg/mL in ACN diluted to 0.5 mg/mL. The protocol:
as §1, §2

As for `C[C@@H]1CN(C(C)(C)/C=C(\C#N)C(=O)N2CCCC[C@@H](OC(=O)N[C@@H](Cc3ccccc3)B(O)O)C2)CCO1` [Boronic Acid 1, ((R)-1-(((((R)-1-((E)-2-cyano-4-methyl-4-((R)-2-methylmorpholino)pent-2-enoyl)azepan-3-yl)oxy)carbonyl)amino)-2-phenylethyl)boronic acid], in series [1], the “% Peak Area by UPLC, 2 weeks” value came out at 85.9%; the “% Peak Area by UPLC, Initial” value is 95.8%; the “Open dish stability, result in words” value is “significantly degraded after two weeks”.
As to `C[C@@H]1CN(C(C)(C)C=C(C#N)C(=O)N2CCCC[C@@H](OC(=O)N[C@@H](Cc3ccccc3)B3OC(C)(C)C(C)(C)O3)C2)CCO1` [Pinacol ester of Boronic Acid 1, (R)-1-(2-cyano-4-methyl-4-((R)-2-methylmorpholino)pent-2-enoyl)azepan-3-yl ((R)-2-phenyl-1-(4,4,5,5-tetramethyl-1,3,2-dioxaborolan-2-yl)ethyl)carbamate], in series [2], the “Conversion of ester to Boronic Acid 1 in SIF” value was “completely converted to Boronic Acid 1 immediately”. Moreover, in series [1], the “% Peak Area by UPLC, 2 weeks” value is recorded as 70.9%; the “% Peak Area by UPLC, Initial” value worked out at 95.5%; the “Open dish stability, result in words” value is given as “significantly degraded after two weeks”. Also, in series [3], the “Conversion of ester to Boronic Acid 1 in SGF” value is on record as “completely converted to Boronic Acid 1 immediately”.
For `C[C@@H]1CN(C(C)(C)/C=C(\C#N)C(=O)N2CCCC[C@@H](OC(=O)N[C@@H](Cc3ccccc3)B3O[C@@H]4C[C@@H]5C[C@@H](C5(C)C)[C@]4(C)O3)C2)CCO1` [Pinanediol ester of Boronic Acid 1], in series [2], the “Conversion of ester to Boronic Acid 1 in SIF” value is reported as “only partially converted to Boronic Acid 1”. For the same molecule, in series [1], the “% Peak Area by UPLC, 2 weeks” value was 90.6%; the “% Peak Area by UPLC, Initial” value is recorded as 93.5%; the “Open dish stability, result in words” value was “significantly degraded after two weeks”. In addition, the “Conversion of ester to Boronic Acid 1 in SGF” value in series [3] is listed as “only partially converted to Boronic Acid 1”.
